The term EC50 denotes the concentration giving half of the maximal effect. What is called Ki is a measure of affinity in units of concentration, obtained from inhibition or displacement.

Test [1] is described as follows: Effective concentration against A2AR mediated P12 adenylatencyclase activity. The test is classed as functional, Rattus norvegicus.
For the next test, the target named is Adenosine A2 receptor (Rattus norvegicus, UniProt P29276+P30543). Briefly: Inhibition of [3H]- NECA binding to adenosine receptor A2. The class given is protein assay.
Test [2] deals with T1, Adenosine receptor A1 (Rattus norvegicus, UniProt P25099).
T1 sequence (P25099 whole entry): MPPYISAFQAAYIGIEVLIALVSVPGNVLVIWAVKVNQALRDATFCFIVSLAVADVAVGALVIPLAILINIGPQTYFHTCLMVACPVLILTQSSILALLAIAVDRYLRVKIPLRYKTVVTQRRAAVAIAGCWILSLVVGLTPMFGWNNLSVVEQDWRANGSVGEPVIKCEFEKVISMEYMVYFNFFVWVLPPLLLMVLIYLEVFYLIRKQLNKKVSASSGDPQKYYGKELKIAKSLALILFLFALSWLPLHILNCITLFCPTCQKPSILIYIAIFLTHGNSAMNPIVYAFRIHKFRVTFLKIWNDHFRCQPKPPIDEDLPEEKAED

In test [3] the target is T1, Adenosine receptor A1. In words: Inhibition of [3H]- (R)-P1A binding to adenosine A1 receptor.
A short description of test [4]: Concentration required to increase Adenosine A2A receptor mediated P12 Adenylate cyclase activity. The test is classed as functional, Rattus norvegicus.

As for `OC[C@H]1O[C@@H](n2cnc3c(NC4CCCC4)nc(Cl)nc32)[C@H](O)[C@@H]1O`, the response in test [1] was half-maximal at 0.73 µM (EC50).

Regarding `C[C@H](Cc1ccccc1)Nc1ncnc2c1ncn2[C@@H]1O[C@H](CO)[C@@H](O)[C@H]1O` [(R)-PIA], in test [1], a half-maximal response (EC50) required 0.98 µM.

On to `C[C@H](Cc1ccccc1)Nc1nc(Cl)nc2c1ncn2[C@@H]1O[C@H](CO)[C@@H](O)[C@H]1O`, for which the inhibition constant (Ki) on Adenosine A2 receptor worked out at 0.22 µM; at Adenosine receptor A1 [2], 0.0014 µM. For the same compound, in test [1], the half-maximal effective concentration (EC50) was 0.32 µM.

With `OC[C@H]1OC(n2cnc3c(Nc4ccccc4)nc(Cl)nc32)[C@H](O)[C@@H]1O` (stereo not given in full), the inhibition constant (Ki) came to 1.7 µM at Adenosine A2 receptor and 0.0076 µM at Adenosine receptor A1 [2]. The compound further registered a 50% effective concentration (EC50) in test [1] of 1.6 µM.

As to `OC[C@H]1O[C@@H](n2cnc3c(NC4CCCC4)ncnc32)[C@H](O)[C@@H]1O` [N6-CYCLOPENTYLADENOSINE], the inhibition constant Ki on Adenosine A2 receptor came to 0.51 µM. Further, in test [1], the EC50 was 3.2 µM.

As to `OC[C@H]1O[C@@H](n2cnc3c(Nc4ccccc4)ncnc32)[C@H](O)[C@@H]1O` [N6-PHENYLADENOSINE], the inhibitory constant (Ki) worked out at 1.2 µM at Adenosine A2 receptor and 0.016 µM at Adenosine receptor A1 [2]. The same compound displayed a 50% effective concentration (EC50) in test [1] of 3.1 µM.

`Nc1nc(Cl)nc2c1ncn2[C@@H]1O[C@H](CO)[C@@H](O)[C@H]1O` came in with a Ki at Adenosine receptor A1 [3] of 0.0067 µM. The same compound yielded a 50% effective concentration (EC50) in test [4] of 0.46 µM.

Regarding `C[C@@H](Cc1ccccc1)Nc1nc(Cl)nc2c1ncn2[C@@H]1O[C@H](CO)[C@@H](O)[C@H]1O`, the inhibitory constant (Ki) was 3 µM on Adenosine A2 receptor and 0.02 µM at Adenosine receptor A1 [2]. In test [1], the response was half-maximal at 3 µM (EC50).

On to `Nc1ncnc2c1ncn2[C@@H]1O[C@H](CO)[C@@H](O)[C@H]1O` [ADENOSINE], for which, in test [4], a half-maximal response (EC50) required 0.15 µM.

Compound `C[C@@H](Cc1ccccc1)Nc1ncnc2c1ncn2[C@@H]1O[C@H](CO)[C@@H](O)[C@H]1O` [(S)-PIA] came in with an EC50 in test [4] of 4.2 µM.
